Data reported in the supplement of paper PMC10307832.

What was measured:
Experiment in all cases: relative viability (nuclei count vs DMSO), 5 days (fraction); higher = more cells survive
[1] = compound: CCN1CCN(c2ccc(Nc3cc(N(C)C(=O)Nc4c(Cl)c(OC)cc(OC)c4Cl)ncn3)cc2)CC1 [BGJ398] + NC(=O)Nc1cc(-c2cccc(F)c2)sc1C(=O)N[C@H]1CCCNC1 [AZD7762] (partner 0.2 µM)
Method in brief: (§1)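 Dosing by pin tool came one day after lung cancer cell lines were seeded in 1536-well plates, using either one drug or a fixed anchor-drug dose plus five library-drug doses (not always all listed) in √10 steps. After 5 days, nuclei were counted on 4× images. Relative viability is treated-well nuclei count divided by vehicle-well nuclei count, and values are medians of duplicate plates.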

[2] = compound: C1=CC2=NC=CN=C2C=C1/C=C/3\C(=O)NC(=O)S3 + CCNC(=O)c1noc(-c2cc(C(C)C)c(O)cc2O)c1-c1ccc(CN2CCOCC2)cc1 [Luminespib] (partner 0.01 µM)
Method in brief: as §1

[3] = compound: CCN1CCN(c2ccc(Nc3cc(N(C)C(=O)Nc4c(Cl)c(OC)cc(OC)c4Cl)ncn3)cc2)CC1 [BGJ398] + CS(=O)(=O)N1CCN(Cc2cc3nc(-c4cccc5[nH]ncc45)nc(N4CCOCC4)c3s2)CC1 [Pictilisib] (partner 1 µM)
Method in brief: as §1

[4] = compound: C1=CC2=NC=CN=C2C=C1/C=C/3\C(=O)NC(=O)S3 + O=C(c1cc(Cc2n[nH]c(=O)c3ccccc23)ccc1F)N1CCN(C(=O)C2CC2)CC1 [Olaparib] (partner 8 µM)
Method in brief: as §1

Cell Line	relative viability ([1]; first compound 0.01 µM)	relative viability ([1]; first compound 0.03162 µM)	relative viability ([1]; first compound 0.1 µM)	relative viability ([1]; first compound 0.3162 µM)	relative viability ([1]; first compound 1 µM)	relative viability ([2]; first compound 0.02 µM)	relative viability ([2]; first compound 0.06325 µM)	relative viability ([2]; first compound 0.2 µM)	relative viability ([2]; first compound 0.6325 µM)	relative viability ([2]; first compound 2 µM)	relative viability ([3]; first compound 0.01 µM)	relative viability ([3]; first compound 0.03162 µM)	relative viability ([3]; first compound 0.1 µM)	relative viability ([3]; first compound 0.3162 µM)	relative viability ([3]; first compound 1 µM)	relative viability ([4]; first compound 0.02 µM)	relative viability ([4]; first compound 0.06325 µM)	relative viability ([4]; first compound 0.2 µM)	relative viability ([4]; first compound 0.6325 µM)	relative viability ([4]; first compound 2 µM)
NCI-H322M	0.689	0.46	0.577	0.607	0.601	0.95	0.76	0.707	0.8	0.522	0.511	0.415	0.508	0.432	0.515	0.733	0.827	0.767	0.801	0.641
NCI-H3122	0.51	1	1.04	1.02	1.17	0.0669	0.0861	0.11	0.0884	0.106	0.609	0.652	0.625	0.678	0.582	0.552	0.679	0.568	0.556	0.619
NCI-H2087	1.13	1.23	1.23	1.45	1.5	0.169	0.208	0.227	0.173	0.203	0.669	0.994	0.966	0.85	1.08	0.484	0.646	0.57	0.631	0.447
LC-2-ad	0.886	0.802	0.852	0.893	0.957	0.984	0.727	1.08	1.07	0.739	0.547	0.492	0.467	0.419	0.392	0.63	0.811	0.692	0.611	0.344
NCI-H1915	0.696	0.665	0.691	0.576	0.724	0.771	0.747	0.815	0.618	0.754	0.913	0.904	0.906	1.03	0.97	0.25	0.248	0.281	0.249	0.258
NCI-H1793	0.466	0.406	0.473	0.434	0.419	0.201	0.188	0.169	0.169	0.174	0.296	–	0.265	0.203	0.196	0.805	0.752	0.801	0.779	0.702
RERF-LC-KJ	0.858	1	0.987	0.819	0.295	1.2	1.52	1.23	1.14	1.28	0.598	0.663	0.515	0.583	0.615	0.893	0.937	1	0.888	0.939
LXF-289	1.02	1.03	1.06	0.978	1.06	0.638	0.738	0.693	0.642	0.561	0.773	0.707	0.682	0.685	0.573	0.993	0.997	1.06	1.01	1.01
PC-14	0.403	–	0.387	0.176	0.249	0.145	0.19	0.195	0.193	0.152	0.696	0.346	0.92	0.669	0.866	0.25	0.363	0.263	0.227	0.277
NCI-H650	0.877	0.934	0.941	0.875	1.04	0.719	0.872	0.755	0.709	0.627	0.87	0.943	0.867	0.858	0.868	0.422	0.397	0.466	0.444	0.267
NCI-H1666	0.95	0.784	0.866	0.703	0.728	1.04	0.994	1.05	0.965	1.03	0.511	0.461	0.536	0.374	0.329	0.746	0.713	0.709	0.695	0.728
NCI-H2085	1.04	0.974	0.948	0.884	0.963	0.489	0.44	0.435	0.452	0.428	0.456	0.44	0.372	0.508	0.394	0.813	0.73	0.798	0.821	0.754
NCI-H1734	0.504	0.56	0.538	0.554	0.624	0.245	0.217	0.182	0.194	0.257	0.421	0.493	0.451	0.407	0.476	0.613	–	0.673	0.562	0.226
NCI-H2126	1.08	1.05	1.05	1.06	1.03	0.86	1.12	0.866	0.83	0.601	0.528	0.461	0.52	0.495	0.418	0.932	0.946	0.841	0.904	0.799
EMC-BAC-2	1.09	1.18	1.14	1.12	1.04	1.13	1.22	1.17	1.09	1.02	0.503	0.561	0.513	0.476	0.465	0.463	0.498	0.572	0.489	0.39
NCI-H1993	0.953	0.85	0.593	0.94	0.803	0.712	0.863	0.854	0.798	0.557	0.744	0.766	0.722	0.82	0.685	0.976	1.06	1.05	1.05	0.182
